Reference: ChEMBL document CHEMBL1275314, “Synthesis and biological evaluation of some 1,3,4-oxadiazole derivatives” (Eur J Med Chem, 2010)
Values after ≈ are worked out from the molar mass of the structure shown.

Legend:
Assay type in all cases: functional
Pseudomonas aeruginosa = assay: Antibacterial activity against Pseudomonas aeruginosa ATCC 27853 after 3 to 4 days by serial plate dilution method
Klebsiella pneumoniae = assay: Antibacterial activity against Klebsiella pneumoniae after 3 to 4 days by serial plate dilution method
Aspergillus flavus = assay: Antifungal activity against Aspergillus flavus NCIM 524 after 3 to 4 days by serial plate dilution method
Aspergillus fumigatus = assay: Antifungal activity against Aspergillus fumigatus NCIM 902 after 3 to 4 days by serial plate dilution method
Talaromyces marneffei = assay: Antifungal activity against Penicillium marneffei after 3 to 4 days by serial plate dilution method
[1] = system: Trichophyton mentagrophytes; assay: Antifungal activity against Trichophyton mentagrophytes after 3 to 4 days by serial plate dilution method
Rattus norvegicus = assay: Antiinflammatory activity in Wister albino rat assessed as inhibition of carrageenan-induced paw edema at 10 mg/kg, po administered 30 mins before carrageenan treatment measured after 3 hrs by plethysmometric analysis
Escherichia coli = assay: Antibacterial activity against Escherichia coli ATCC 25922 after 3 to 4 days by serial plate dilution method
Staphylococcus aureus = assay: Antibacterial activity against Staphylococcus aureus ATCC 25923 after 3 to 4 days by serial plate dilution method
Mus musculus [2] = assay: Analgesic activity in Swiss albino mouse assessed as inhibition of heat-induced paw licking or jumping behavior at 10 mg/kg, po administered after 15 sec of heat challenge measured after 30 mins post dose by Eddy's hot plate method; conditions: 0.5 h
Mus musculus [3] = assay: Analgesic activity in Swiss albino mouse assessed as inhibition of heat-induced paw licking or jumping behavior at 10 mg/kg, po administered after 15 sec of heat challenge measured after 60 mins post dose by Eddy's hot plate method; conditions: 1 h
Mus musculus [4] = assay: Analgesic activity in Swiss albino mouse assessed as inhibition of heat-induced paw licking or jumping behavior at 10 mg/kg, po administered after 15 sec of heat challenge measured after 90 mins post dose by Eddy's hot plate method; conditions: 1.5 h

MIC (Pseudomonas aeruginosa) [µg/mL] | MIC (Klebsiella pneumoniae) [µg/mL] | MIC (Aspergillus flavus) [µg/mL] | MIC (Aspergillus fumigatus) [µg/mL] | MIC (Talaromyces marneffei) [µg/mL] | MIC [1] [µg/mL] | MIC (Escherichia coli) [µg/mL] | MIC (Staphylococcus aureus) [µg/mL] | SMILES | inhibition in vivo at 10 mg/kg (Rattus norvegicus) [%] | inhibition in vivo at 10 mg/kg (Mus musculus [2]) [%] | inhibition in vivo at 10 mg/kg (Mus musculus [3]) [%] | inhibition in vivo at 10 mg/kg (Mus musculus [4]) [%]
6.25 (≈ 17.3 µM) | 6.25 (≈ 17.3 µM) | 6.25 (≈ 17.3 µM) | 6.25 (≈ 17.3 µM) | 6.25 (≈ 17.3 µM) | 6.25 (≈ 17.3 µM) | 6.25 (≈ 17.3 µM) | 6.25 (≈ 17.3 µM) | CC(C)Cc1ccc(C(C)c2nn(CN3CCOCC3)c(=S)o2)cc1 (centres undefined) | 69.5 |  |  | 
6.25 (≈ 13.4 µM) | 6.25 (≈ 13.4 µM) | 12.5 (≈ 26.8 µM) | 12.5 (≈ 26.8 µM) | 12.5 (≈ 26.8 µM) | 12.5 (≈ 26.8 µM) | 6.25 (≈ 13.4 µM) | 6.25 (≈ 13.4 µM) | COc1ccc(N2CCN(Cn3nc(C(C)c4ccc(CC(C)C)cc4)oc3=S)CC2)cc1 (centres undefined) | 42.6 |  |  | 
12.5 (≈ 28 µM) | 12.5 (≈ 28 µM) | 12.5 (≈ 28 µM) | 12.5 (≈ 28 µM) | 12.5 (≈ 28 µM) | 12.5 (≈ 28 µM) | 12.5 (≈ 28 µM) | 12.5 (≈ 28 µM) | CSc1ccc(Cc2nn(CN3CCN(c4cccc(Cl)c4)CC3)c(=S)o2)cc1 | 74.7 | 25.6 | 32 | 41.2
25 (≈ 52 µM) | 25 (≈ 52 µM) | 12.5 (≈ 26 µM) | 12.5 (≈ 26 µM) | 12.5 (≈ 26 µM) | 12.5 (≈ 26 µM) | 25 (≈ 52 µM) | 25 (≈ 52 µM) | CCOc1ccccc1N1CCN(Cn2nc(C(C)c3ccc(CC(C)C)cc3)oc2=S)CC1 (centres undefined) | 44.6 |  |  | 
12.5 (≈ 28.2 µM) | 12.5 (≈ 28.2 µM) | 12.5 (≈ 28.2 µM) | 12.5 (≈ 28.2 µM) | 12.5 (≈ 28.2 µM) | 12.5 (≈ 28.2 µM) | 12.5 (≈ 28.2 µM) | 12.5 (≈ 28.2 µM) | COc1ccc(N2CCN(Cn3nc(Cc4ccc(SC)cc4)oc3=S)CC2)cc1 | 33.7 |  |  | 
12.5 (≈ 37.3 µM) | 12.5 (≈ 37.3 µM) | 25 (≈ 74.5 µM) | 25 (≈ 74.5 µM) | 25 (≈ 74.5 µM) | 25 (≈ 74.5 µM) | 12.5 (≈ 37.3 µM) | 12.5 (≈ 37.3 µM) | CSc1ccc(Cc2nn(CN3CCCCC3)c(=S)o2)cc1 |  |  |  | 

The remaining lines, values behind:

SMILES | MIC (Pseudomonas aeruginosa) [µg/mL] | MIC (Klebsiella pneumoniae) [µg/mL] | MIC (Aspergillus flavus) [µg/mL] | MIC (Aspergillus fumigatus) [µg/mL] | MIC (Talaromyces marneffei) [µg/mL] | MIC [1] [µg/mL] | MIC (Escherichia coli) [µg/mL] | MIC (Staphylococcus aureus) [µg/mL] | inhibition in vivo at 10 mg/kg (Rattus norvegicus) [%] | inhibition in vivo at 10 mg/kg (Mus musculus [2]) [%] | inhibition in vivo at 10 mg/kg (Mus musculus [3]) [%] | inhibition in vivo at 10 mg/kg (Mus musculus [4]) [%]
CSc1ccc(Cc2nn(CN3CCN(c4ccc([N+](=O)[O-])cc4)CC3)c(=S)o2)cc1 | 6.25 (≈ 13.7 µM) | 6.25 (≈ 13.7 µM) | 25 (≈ 54.6 µM) | 25 (≈ 54.6 µM) | 25 (≈ 54.6 µM) | 25 (≈ 54.6 µM) | 6.25 (≈ 13.7 µM) | 6.25 (≈ 13.7 µM) | 56.6 |  |  | 
CC(C)Cc1ccc(C(C)c2nn(CN3CCN(c4ccc(Cl)cc4)CC3)c(=S)o2)cc1 (centres undefined) | 12.5 (≈ 26.5 µM) | 12.5 (≈ 26.5 µM) | 12.5 (≈ 26.5 µM) | 12.5 (≈ 26.5 µM) | 12.5 (≈ 26.5 µM) | 12.5 (≈ 26.5 µM) | 12.5 (≈ 26.5 µM) | 12.5 (≈ 26.5 µM) | 76.6 | 22.8 | 28 | 35.8
CSc1ccc(Cc2nn(CN3CCNCC3)c(=S)o2)cc1 | 12.5 (≈ 37.1 µM) | 12.5 (≈ 37.1 µM) | 12.5 (≈ 37.1 µM) | 12.5 (≈ 37.1 µM) | 12.5 (≈ 37.1 µM) | 12.5 (≈ 37.1 µM) | 12.5 (≈ 37.1 µM) | 12.5 (≈ 37.1 µM) |  |  |  | 
CC(C)Cc1ccc(C(C)c2nn(CN3CCN(C)CC3)c(=S)o2)cc1 (centres undefined) | 12.5 (≈ 33.4 µM) | 12.5 (≈ 33.4 µM) | 25 (≈ 66.7 µM) | 25 (≈ 66.7 µM) | 25 (≈ 66.7 µM) | 25 (≈ 66.7 µM) | 12.5 (≈ 33.4 µM) | 12.5 (≈ 33.4 µM) |  |  |  | 
O=C(O)c1cn(C2CC2)c2cc(N3CCNCC3)c(F)cc2c1=O [CIPROFLOXACIN] |  | 6.25 (≈ 18.9 µM) |  |  |  |  |  | 1.56 (≈ 4.71 µM) |  |  |  | 
CSc1ccc(Cc2nn(CN3CCOCC3)c(=S)o2)cc1 | 12.5 (≈ 37 µM) | 12.5 (≈ 37 µM) | 6.25 (≈ 18.5 µM) | 6.25 (≈ 18.5 µM) | 6.25 (≈ 18.5 µM) | 6.25 (≈ 18.5 µM) | 12.5 (≈ 37 µM) | 12.5 (≈ 37 µM) | 35.2 |  |  | 
